Tests used:
Melanocortin receptor 3 = Melanocortin receptor 3 (Homo sapiens, UniProt P41968); experiment: Binding affinity towards human melanocortin 3 receptor expressed in HEK 293 cells was determined by using [125I]NDP-MSH as radioligand; format: cell-based, HEK293
[1] = biological target: T1, Melanocyte-stimulating hormone receptor (Homo sapiens, UniProt Q01726); experiment: Percent inhibition of [125I]NDP-MSH binding to human melanocortin 1 receptor expressed in HEK 293 cells at 10 uM; format: cell-based; details: HEK293
Target sequence in this assay (Q01726 whole entry, looked up): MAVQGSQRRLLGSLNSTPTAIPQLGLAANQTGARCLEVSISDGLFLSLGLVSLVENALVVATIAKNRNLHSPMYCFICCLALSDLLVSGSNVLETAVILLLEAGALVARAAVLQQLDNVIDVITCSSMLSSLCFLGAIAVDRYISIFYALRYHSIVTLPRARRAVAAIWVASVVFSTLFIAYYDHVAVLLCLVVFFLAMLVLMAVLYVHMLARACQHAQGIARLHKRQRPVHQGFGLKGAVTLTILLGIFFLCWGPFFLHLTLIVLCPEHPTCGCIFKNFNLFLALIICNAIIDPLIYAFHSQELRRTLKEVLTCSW

Melanocortin receptor 5 = Melanocortin receptor 5 (Homo sapiens, UniProt P33032); experiment: Binding affinity towards human melanocortin 5 receptor expressed in HEK 293 cells was determined by using [125I]NDP-MSH as radioligand; format: cell-based, HEK293
Melanocortin receptor 4 [2] = biological target: T2, Melanocortin receptor 4 (Homo sapiens, UniProt P32245); experiment: Binding affinity towards human melanocortin 4 receptor expressed in HEK 293 cells was determined by using [125I]NDP-MSH as radioligand; format: cell-based, HEK293
Cell line [3] = experiment: Effective concentration required for alpha-MSH stimulated cAMP production at 10 uM; format: functional, cell-based; details: Homo sapiens
Cell line [4] = experiment: Percentage of alpha-MSH stimulated cAMP level at 10 uM; format: functional, Homo sapiens
Cell line [5] = experiment: Effective concentration required for alpha-MSH stimulated cAMP production; format: functional, cell-based; details: Homo sapiens
Melanocortin receptor 4 [6] = biological target: T2, Melanocortin receptor 4; experiment: Tested for inhibition of binding to MC4 receptor
Cell line [7] = experiment: Concentration required for inhibition of alpha-MSH stimulated cAMP production by 50%; format: functional, cell-based; details: Homo sapiens
[8] = biological target: T1, Melanocyte-stimulating hormone receptor; experiment: Binding affinity towards human melanocortin 1 receptor expressed in HEK 293 cells was determined by using [125I]NDP-MSH as radioligand; format: cell-based, HEK293
Target sequence in this assay (Q01726 whole entry): as the sequence (Q01726 whole entry, looked up) above

[9] = Tested for inhibition of NDP-MSH binding; format: functional

Sequence of Melanocortin receptor 5 (P33032 whole entry): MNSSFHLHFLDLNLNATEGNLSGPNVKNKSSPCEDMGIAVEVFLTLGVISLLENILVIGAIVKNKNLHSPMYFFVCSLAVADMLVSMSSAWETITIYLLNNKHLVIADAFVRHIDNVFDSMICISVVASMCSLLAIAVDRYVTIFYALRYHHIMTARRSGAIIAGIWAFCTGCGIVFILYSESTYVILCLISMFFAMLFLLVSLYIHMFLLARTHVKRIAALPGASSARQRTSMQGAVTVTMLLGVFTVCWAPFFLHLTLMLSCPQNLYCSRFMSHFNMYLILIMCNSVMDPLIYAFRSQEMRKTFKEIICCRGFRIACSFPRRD
T2 sequence (P32245 whole entry): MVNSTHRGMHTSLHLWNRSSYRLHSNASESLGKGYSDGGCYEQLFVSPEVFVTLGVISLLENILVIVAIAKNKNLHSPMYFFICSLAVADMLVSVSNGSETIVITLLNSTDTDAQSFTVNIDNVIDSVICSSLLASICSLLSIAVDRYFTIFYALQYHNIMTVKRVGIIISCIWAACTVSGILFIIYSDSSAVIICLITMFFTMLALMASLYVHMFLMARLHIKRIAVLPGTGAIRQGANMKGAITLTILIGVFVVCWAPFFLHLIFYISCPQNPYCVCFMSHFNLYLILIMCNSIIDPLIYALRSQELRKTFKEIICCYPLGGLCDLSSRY
Sequence of Melanocortin receptor 3 (P41968 whole entry): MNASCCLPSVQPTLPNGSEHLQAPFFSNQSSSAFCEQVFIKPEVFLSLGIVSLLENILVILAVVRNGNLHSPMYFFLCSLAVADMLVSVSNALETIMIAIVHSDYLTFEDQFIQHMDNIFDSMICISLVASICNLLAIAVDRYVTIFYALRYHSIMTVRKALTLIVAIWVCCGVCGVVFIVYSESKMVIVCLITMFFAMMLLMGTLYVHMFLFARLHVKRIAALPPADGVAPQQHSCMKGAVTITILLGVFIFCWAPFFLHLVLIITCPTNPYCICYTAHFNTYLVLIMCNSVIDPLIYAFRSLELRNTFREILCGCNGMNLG

Compound	Ki (Melanocortin receptor 4 [2])	EC50 (Cell line [3])	IA (Cell line [4])	further results
NCC(=O)N[C@H](Cc1ccc(Cl)cc1)C(=O)N1CCN(c2ccccc2CNCCc2cccs2)CC1	44 nM	580 nM	77%	Ki (Melanocortin receptor 3): 1900 nM; inhibition [1]: 50%; Ki (Melanocortin receptor 5): 990 nM
O=C(N[C@H](Cc1ccc(Cl)cc1)C(=O)N1CCN(c2ccccc2Cn2cncn2)CC1)[C@H]1Cc2ccccc2CN1				EC50 (Cell line [5]): 80 nM
COc1ccc(Br)cc1CCc1c(Cl)cccc1-c1nc(C)c[nH]1				Ki (Melanocortin receptor 4 [6]): 180 nM
NCCCC(=O)N[C@H](Cc1ccc(Cl)cc1)C(=O)N1CCN(c2ccccc2CNCCc2cccs2)CC1	14 nM		15%	IC50 (Cell line [7]): 66 nM; Ki (Melanocortin receptor 3): 1400 nM; Ki (Melanocortin receptor 5): 1000 nM; Ki [8]: 1200 nM
NCCC(=O)N[C@H](Cc1ccc(Cl)cc1)C(=O)N1CCN(c2ccccc2CNCCc2cccs2)CC1	21 nM		14%	IC50 (Cell line [7]): 90 nM; Ki (Melanocortin receptor 3): 1000 nM; Ki (Melanocortin receptor 5): 1000 nM; Ki [8]: 1300 nM
NC(CC(=O)N1CCN(c2ccccc2CNCCc2cccs2)CC1)c1ccc(Cl)cc1 (configuration not stated)	5400 nM		<45%	
CN(C)CC(=O)N[C@H](Cc1ccc(Cl)cc1)C(=O)N1CCN(c2ccccc2CNCCc2cccs2)CC1	38 nM	1400 nM	45%	
O=C(N[C@H](Cc1ccc(Cl)cc1)C(=O)N1CCN(c2ccccc2CNCCc2cccs2)CC1)C1CCNCC1	26 nM		39%	
COCC(=O)N[C@H](Cc1ccc(Cl)cc1)C(=O)N1CCN(c2ccccc2CNCCc2cccs2)CC1	70 nM		16%	
CC(NC1CCCNC1)c1ccccc1N1CCN(C(=O)[C@@H](Cc2ccc(Cl)cc2)NC(=O)[C@H]2Cc3ccccc3CN2)CC1 (some centres not stated)				EC50 (Cell line [5]): 3.8 nM
O=C(N[C@H](Cc1ccc(Cl)cc1)C(=O)N1CCN(c2ccccc2CNCCc2cccs2)CC1)c1cccnc1	41 nM		5%	IC50 (Cell line [7]): 880 nM; Ki (Melanocortin receptor 3): 1800 nM; inhibition [1]: 23%; Ki (Melanocortin receptor 5): 730 nM
NCCC(=O)OC(Cc1ccc(Cl)cc1)C(=O)N1CCN(c2ccccc2CNCCc2cccs2)CC1 (configuration not stated)	290 nM		<45%	
O=C([C@@H](Cc1ccc(Cl)cc1)NS(=O)(=O)CC(F)(F)F)N1CCN(c2ccccc2CNCCc2cccs2)CC1	410 nM		<45%	
CC(C)(N)C(=O)N[C@H](Cc1ccc(Cl)cc1)C(=O)N1CCN(c2ccccc2CNCCc2cccs2)CC1	66 nM	1500 nM	80%	
CC(Nc1ccccc1N)c1ccccc1N1CCN(C(=O)[C@@H](Cc2ccc(Cl)cc2)NC(=O)CCN)CC1 (some centres not stated)	470 nM	2720 nM	56%	
O=C(CCc1ccc(Cl)cc1)N1CCN(c2ccccc2CNCCc2cccs2)CC1	1000 nM		<45%	
NCC(Cc1ccc(Cl)cc1)C(=O)N1CCN(c2ccccc2CNCCc2cccs2)CC1 (configuration not stated)	6400 nM		<45%	
O=C(C(O)c1ccc(Cl)cc1)N1CCN(c2ccccc2CNCCc2cccs2)CC1 (configuration not stated)	> 10000 nM		<45%	
CC(N[C@@H]1CCCC[C@H]1N)c1ccccc1N1CCN(C(=O)[C@@H](Cc2ccc(Cl)cc2)NC(=O)CCN)CC1 (some centres not stated)	150 nM	590 nM	64%	
CC(NCCN1CCCCC1)c1ccccc1N1CCN(C(=O)[C@@H](Cc2ccc(Cl)cc2)NC(=O)CCN)CC1 (some centres not stated)	210 nM		41%	
NC1(C(=O)N[C@H](Cc2ccc(Cl)cc2)C(=O)N2CCN(c3ccccc3CNCCc3cccs3)CC2)CC1	46 nM		12%	
O=C(N[C@H](Cc1ccc(Cl)cc1)C(=O)N1CCN(c2ccccc2CNCCc2cccs2)CC1)C1CCN1 (some centres not stated)	48 nM	1630 nM	47%	
O=C(N[C@H](Cc1ccc(Cl)cc1)C(=O)N1CCN(c2ccccc2CNCCc2cccs2)CC1)C1CCCN1 (some centres not stated)	50 nM	1900 nM	56%	

Compound	Ki (Melanocortin receptor 4 [2])	EC50 (Cell line [3])	IA (Cell line [4])	further results
CC(c1ccccc1N1CCN(C(=O)[C@@H](Cc2ccc(Cl)cc2)NC(=O)CCN)CC1)N1CCN(c2ccccc2)CC1 (some centres not stated)	430 nM		35%	
O=C(N[C@H](Cc1ccc(Cl)cc1)C(=O)N1CCN(c2ccccc2CNCCc2cccs2)CC1)[C@H]1Cc2ccccc2CN1		320 nM	100%	
O=C(N[C@H](Cc1ccc(Cl)cc1)C(=O)N1CCN(c2ccccc2CNCCc2cccs2)CC1)C1CCCCN1 (some centres not stated)	75 nM	1100 nM	60%	
CC(C)CC(N)C(=O)N[C@H](Cc1ccc(Cl)cc1)C(=O)N1CCN(c2ccccc2CNCCc2cccs2)CC1 (some centres not stated)	30 nM	2600 nM	45%	
CC(NCCNc1cccc2ccccc12)c1ccccc1N1CCN(C(=O)[C@@H](Cc2ccc(Cl)cc2)NC(=O)CCN)CC1 (some centres not stated)	290 nM		22%	
NC(C(=O)N1CCN(c2ccccc2CNCCc2cccs2)CC1)c1ccc(Cl)cc1 (configuration not stated)	1800 nM		<45%	
O=C(Cc1ccc(Cl)cc1)N1CCN(c2ccccc2CNCCc2cccs2)CC1	> 10000 nM		<45%	
CC(NCc1ccco1)c1ccccc1N1CCN(C(=O)[C@@H](Cc2ccc(Cl)cc2)NC(=O)CCN)CC1 (some centres not stated)	140 nM	1870 nM	99%	
CC(NCc1ccccc1N)c1ccccc1N1CCN(C(=O)[C@@H](Cc2ccc(Cl)cc2)NC(=O)CCN)CC1 (some centres not stated)	120 nM	364 nM	100%	
N[C@H](Cc1ccc(Cl)cc1)C(=O)N1CCN(c2ccccc2CNCCc2cccs2)CC1	600 nM	8700 nM	85%	
COc1ccc2ccccc2c1CCCCN1CCN(CC(c2ccc(F)cc2)N2CCN(C)CC2)CC1 (configuration not stated)				Ki (Melanocortin receptor 4 [6]): 7.9 nM
O=C(N[C@H](Cc1ccc(Cl)cc1)C(=O)N1CCN(c2ccccc2CNCCc2cccs2)CC1)C1CCCNC1 (some centres not stated)	15 nM		12%	IC50 (Cell line [7]): 36 nM; Ki (Melanocortin receptor 3): 1400 nM; Ki (Melanocortin receptor 5): 720 nM; Ki [8]: 2300 nM
CC(c1ccccc1N1CCN(C(=O)[C@@H](Cc2ccc(Cl)cc2)NC(=O)CCN)CC1)N1CCN(C)CC1 (some centres not stated)	86 nM	471 nM	59%	
NC(Cc1ccccc1Cl)C(=O)N1CCN(c2ccccc2CNCCc2cccs2)CC1 (configuration not stated)	1000 nM		<45%	
NC(Cc1ccc(Cl)cc1)C(=O)N1CCN(c2ccccc2CNCCc2cccs2)CC1 (configuration not stated)	3900 nM		<45%	
CN(CCc1cccs1)Cc1ccccc1N1CCN(C(=O)[C@@H](Cc2ccc(Cl)cc2)NC(=O)CCN)CC1	220 nM		32%	
O=C(CC1CCCN1)N[C@H](Cc1ccc(Cl)cc1)C(=O)N1CCN(c2ccccc2CNCCc2cccs2)CC1 (some centres not stated)	40 nM	1800 nM	57%	
CC(C)(C(=O)N1CCN(c2ccccc2CNCCc2cccs2)CC1)c1ccc(Cl)cc1	3800 nM		<45%	
CC(NCCc1cccs1)c1ccccc1N1CCN(C(=O)[C@@H](Cc2ccc(Cl)cc2)NC(=O)CCN)CC1 (some centres not stated)	110 nM		32%	
CCC(NCCc1cccs1)c1ccccc1N1CCN(C(=O)[C@@H](Cc2ccc(Cl)cc2)NC(=O)CCN)CC1 (some centres not stated)	140 nM		29%	
CC(CN1CCN(CC(c2ccc(F)cc2)N2CCN(C)CC2)CC1)C(=O)c1ccccc1 (configuration not stated)				IC50 [9]: 220 nM
COc1ccc(Br)cc1CCc1c(F)cccc1-c1ncc[nH]1				Ki (Melanocortin receptor 4 [6]): 160 nM

From ChEMBL document CHEMBL1137106, “Piperazinebenzylamines as potent and selective antagonists of the human melanocortin-4 receptor” (Bioorg Med Chem Lett, 2004)
